Test results published in patent publication US20080085885A1, “Inhibition Of Voluntary Ethanol Consumption With Non-Peptidyl Melanocortin-4 Receptor Agonists” (priority 2004, published 2008).
Entries after “also recorded” stand apart in the source; their conditions may differ.

Legend:
[1] = target: hMC1bR (Homo sapiens, UniProt Q01726); experiment: cAMP functional assay (agonist); format: cell-based; details: functional selectivity stated in text; 45 min
Procedure: Cells (for example, CHO- or L-cells or other eukaryotic cells) expressing a human melanocortin receptor (see e.g. Yang-YK; Ollmann-MM; Wilson-BD; Dickinson-C; Yamada-T; Barsh-GS; Gantz-I; Mol-Endocrinol. 1997 March; 11(3): 274-80) were dissociated from tissue culture flasks by rinsing with Ca and Mg free phosphate buffered saline (14190-136, Life Technologies, Gaithersburg, Md.) and detached following 5 min incubation at 37° C. with enzyme free dissociation buffer (S-014-B, Specialty Media, Lavellette, N.J.). Cells were collected by centrifugation and resuspended in Earle's Balanced Salt Solution (14015-069, Life Technologies, Gaithersburg, Md.) with additions of 10 mM HEPES pH 7.5, 5 mM MgCl2, 1 mM glutamine and 1 mg/ml bovine serum albumin. Cells were counted and diluted to 1 to 5×10^6/mL. The phosphodiesterase inhibitor 3-isobutyl-1-methylxanthine was added to cells to 0.6 mM.
Agonist Assay: Test compounds were diluted in dimethylsulfoxide (DMSO) (10^−5 to 10^−10 M) and 0.1 volume of compound solution was added to 0.9 volumes of cell suspension; the final DMSO concentration was […]. After room temperature incubation for 45 min, cells were lysed by incubation at 100° C. for 5 min to release accumulated cAMP.
cAMP was measured in an aliquot of the cell lysate with the Amersham (Arlington Heights, Ill.) cAMP detection assay (RPA556). […]

[2] = tested on: Male Wistar rats; experiment: Alcohol deprivation effect (ADE) after 10 day deprivation (animal model of alcohol relapse); format: in vivo, rat; details: for Alcohol deprivation effect (ethanol consumed after 10 day deprivation): po
Procedure: (§1) FIG. 1. Operant training for oral ethanol across 30 minute test sessions in rats (n=8-10). Rats were trained on a continuous reinforcement (FR-1) schedule using a saccharine fading procedure and once stable levels of ethanol self-administration (10% w/v) were achieved, testing was initiated. Test 1 examined the effects of melanocortin 4 receptor agonist, Compound A, on maintenance levels of ethanol self-administration and Test 2 examined the effects of Compound A on the Alcohol Deprivation Effect (ADE).
FIG. 3. […] Operant training for oral ethanol in 30 minute test sessions in rats (n=8-10). Following the maintenance self-administration test, rats were rebaselined prior to being confined to their home-cages for a 10 day deprivation period. Melanocortin 4 receptor agonist, Compound A was administered at 0, 5, 10 or 20 mg/kg, po prior to reintroduction to the test chambers following deprivation. […] The symbol * indicates a significant difference between baseline and drug treated groups (p<0.05). The symbol # indicates a significant difference between vehicle treated (ADE) and drug treated groups (p<0.05).
Method: Methods for this experiment were as described in EXAMPLE 3. Following the maintenance ethanol self-administration experiment, rats were re-baselined and once reliable levels of alcohol-reinforced self-administration were achieved, rats were confined to their home cages for a 10-day period. Prior to reintroduction to the test chamber, animals were injected with Compound (0, 5, 10 and 20 mg/kg).

[3] = tested on: Male Wistar rats; experiment: Maintenance operant ethanol self-administration (animal model of alcohol reward); format: in vivo, rat
Procedure: as §1
FIG. 2. […] Operant training for oral ethanol in 30 minute test sessions in rats (n=8-10). Melanocortin 4 receptor agonist, Compound A, was administered at 0, 5, 10 or 20 mg/kg, po prior to testing. […] The symbol * indicates a significant difference between the vehicle and drug treated groups (p<0.05).
Animals: Male Wistar rats were used in all experiments. Body weight was 180-200 g at the start of the experiments. Rats were housed 2-3 per cage with food and water available ad libitum. Lights were on a 12-hour light/dark cycle, with lights on at 0600. All procedures met the guidelines of the National Institutes of Health Guide for the Care and Use of Laboratory Animals.
Operant Ethanol Self-Administration: Ethanol dilutions (5, 8 and 10% w/v) were prepared with 95% ethyl alcohol and tap water. Saccharin (Sigma Chemical Co., St. Louis, Mo.) was added to water or ethanol solutions to achieve a concentration of 0.2% w/v. Standard operant chambers (Med Associates, VT) housed in sound-attenuated chambers were used for ethanol self-administration. Syringe pumps dispensed ethanol and water into two stainless steel reservoirs mounted 4 cm above the floor of the chamber, centered between the two operant levers. The two retractable levers were located 4.5 cm to either side of the fluid reservoir. Fluid delivery and recording of operant responding were controlled by microcomputer. Rats were trained on a continuous reinforcement fixed-ratio 1 (FR1) schedule to self-administer oral alcohol (10% w/v, 0.1 ml per delivery) or water in 30 minute sessions. […]

[4] = tested on: AA rats; details: AA rats with established ethanol intake; Ploj et al. 2002; cited from earlier work

Sequence of hMC1bR (Q01726 whole entry): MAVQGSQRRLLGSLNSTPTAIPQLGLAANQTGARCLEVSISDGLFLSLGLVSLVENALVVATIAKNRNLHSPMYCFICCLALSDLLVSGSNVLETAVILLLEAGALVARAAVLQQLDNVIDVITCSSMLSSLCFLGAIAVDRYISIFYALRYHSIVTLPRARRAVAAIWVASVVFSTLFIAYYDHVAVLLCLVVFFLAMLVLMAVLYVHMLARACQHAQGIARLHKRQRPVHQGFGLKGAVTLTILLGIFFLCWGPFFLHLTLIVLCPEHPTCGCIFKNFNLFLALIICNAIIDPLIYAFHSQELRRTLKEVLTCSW

Row | EC50 for melanocortin 4 receptor lower than for melanocortin 1 receptor [1] | Compound | Alcohol deprivation effect (ethanol consumed after 10 day deprivation) ([2]; 5 mg/kg) | Alcohol deprivation effect (ethanol consumed after 10 day deprivation) ([2]; 10 mg/kg) | Alcohol deprivation effect (ethanol consumed after 10 day deprivation) ([2]; 20 mg/kg) | Water consumption ([2]; ADE test, any dose (5, 10, 20 mg/kg, po)) | Alcohol deprivation effect, overall statement ([2]; male Wistar rats, 10 day forced deprivation, FIG. 3) | Ethanol self-administration (10% w/v), 30 minute session ([3]; 20 mg/kg, po, vs vehicle/baseline, p<0.05) | Water consumption ([3]; maintenance test, any dose (5, 10, 20 mg/kg, po)) | Reduction of ethanol self administration ([3]; male Wistar rats, dose dependent, FIG. 2) | Voluntary ethanol drinking [4]
1 | at least 120 fold | CC[C@H](NC(C)=O)c1cc(Cl)ccc1C1CCN(C(=O)C2CN(C(C)(C)C)C[C@H]2c2ccc(F)cc2F)CC1 (stereo partly shown) [Compound A] | blocking the ADE; also recorded: significant attenuation of the alcohol deprivation effect | blocking the ADE; also recorded: significant attenuation of the alcohol deprivation effect | significant decrease below baseline levels of consumption; also recorded: further reduction below baseline levels | not significantly altered; also recorded: not significantly changed | reduced the increase in ethanol consumption | significant reductions from baseline levels; also recorded: significant reduction in ethanol self-administration | not significantly altered; also recorded: not significantly changed; also recorded: no significant effects on water consumption | approximately 50% | –
2 | – | MTII | – | – | – | – | – | – | – | – | significantly reduces voluntary ethanol drinking
